# Test results as given in patent publication US9006221B2, “Method of modulating ship activity” (H. Lee Moffitt Cancer Center and Reserach Institute, Inc., priority 2008, dated 2015).
# Assays:
# [1] = tested on: Mac1+Gr1+ myeloid immunoregulatory cells; assay: FACS quantitation of Mac1+Gr1+ myeloid suppressor (MySC/MIR) cells in spleen and lymph node of treated mice; assay type: in vivo, mouse; settings: for number of MIR cells: daily i.p. injection at 60 μM for 7 days; for number of Mac1+Gr1+ MySC (MDSC): daily injection at 125 μM for 7 days
# Experimental: (§1) FACS quantitation of Mac1^+Gr1^+ Myeloid-Derived Suppressor Cells (Mac1^+Gr1^+ MySC) (A,B) and FoxP3^+CD4^+CD25^+ Treg cells (C,D) in spleen and lymph node of C57BL6 mice treated with NSC13480, vehicle or non-manipulated mice (Normal). ***p<0.001; *p<0.05.
# (§2) In addition, both donor and host Treg cells can also limit or abrogate GvHD. […] (Paraiso, K. H., et al. 2007. J Immunol 178:2893). […] Adult mice were treated for 7 days with a daily injection of NSC13480 at 125 μM. The frequency of MySC and Treg cells was tested in the spleens of mice treated with NSC13480, the vehicle used for delivery of NSC 13480 and normal, untreated mice.
# Expansion of the Mac1^+Gr1^+ MIR cell compartment can suppress GvHD. [Ghansah T, et al., J Immunol (2004) 173(12):7324-7330; Paraiso K H, et al., J Immunol (2007) 178(5):2893-2900; MacDonald K P, et al., J Immunol (2005) 174(4):1841-1850] Thus, the ability 3α-aminocholestane to expand the MIR compartment in peripheral lymphoid tissues, where GvHD and organ transplant rejection are primed, was tested. Adult mice were treated for 7 days with a daily intraperitoneal (i.p.) injection of 3α-aminocholestane at 60 μM. We then compared the frequency of MIR cells in the spleens and LN of mice treated with 3α-aminocholestane to that of control mice treated with either their respective vehicles or to unmanipulated mice. […] Thus, consistent with the findings in mice genetically ablated for SHIP1 expression during adult physiology [Paraiso K H, et al., J Immunol (2007) 178(5):2893-2900], inhibition of SHIP1 activity in adult mice expands the MIR cell compartment in peripheral lymphoid tissues.
# (§3) Antibody staining and flow cytometry (Examples 1-6): Anti-CD16/32 was co-incubated with the samples to block Fc receptor binding. Antibodies used for staining included: NK1.1 (PK136); CD3e (145-2C11); Ly49G2 (4D11); Gr-1 (RB6-8C5); Mac-1(M1/70); CD11c (HL3); CD4 (GK1.5); CD25 (PC61) and were obtained from BD Pharmingen (San Jose, Calif.). FoxP3 (FJK-16s) was purchased from eBioScience (San Diego, Calif.). All samples were acquired on a FACSCalibur and analyzed using FlowJo8.7.1. For viable staining, dead cells were excluded from the analysis following cytometer acquisition of data by exclusion of the 7AAD dye. For staining of FoxP3, viable cells were first stained for extacellular markers followed by fixation and permeabilization to stain for the intracellular FoxP3.
# Use of SHIP1 inhibitory compounds for in vitro and in vivo studies: For in vitro studies 3α-aminocholestane was suspended in 100% ethanol. […]
# Antibody staining and flow cytometry (Examples 7-9): Anti-CD16/32 was incubated with the samples to block Fc receptor binding. […] All samples were acquired on a FACSCalibur and analyzed using FlowJo8.7.1. […]
# [2] = mouse, in vivo
# KG-1 AML cells = assay: MTT cell viability assay, KG1; assay type: cell-based, human; settings: KG-1, expresses SHIP1, 36 hours
# Experimental: (A) SHIP1 expression in KG1 and MG63 cells was determined by Western blotting (top). Membranes were reprobed with antibodies against b-actin to confirm equal loading (lower panel). One representative blot of 2 individual experiments is shown. (B) KG1 and MG63 cells were plated in duplicate in 96 well plates, and treated for 36 hours with increasing concentrations of the 3α-aminocholestane. Cell viability was assessed by MTT assay. Results represent the mean of three individual experiments. (C) KG1 cells were treated with increasing concentrations of 3α-aminocholestane for 36 hours and hallmarks of apoptosis were identified in cell lysates by Western Blot analysis. […] (D) KG1 cells were treated with increasing concentrations of 3α-aminocholestane, and the percentage of AnnexinV and PI positive cells was determined by FACS analysis. […]
# Cell viability assay: Cells were treated in duplicate for 36 hours with increasing concentrations of 3α-aminocholestane or vehicle. […] Formed crystals were dissolved in dimethyl sulfoxide and optical density (OD) was measured at 570 nm. The OD of compound treated cells was divided by the OD of their vehicle control, and the viability was expressed as a percentage of untreated cells. Results are expressed as mean±SEM of three individual experiments.
# [3] = tested on: FoxP3+CD4+CD25+ Treg cells; assay: FACS quantitation of FoxP3+CD4+CD25+ Treg cells in spleen and lymph node of treated mice; assay type: in vivo, mouse; settings: daily injection at 125 μM for 7 days
# Experimental: as §1, §2
# as §3, with “For staining of FoxP3, viable cells were first stained for extacellular markers followed by fixation and permeabilization to stain for the intracellular FoxP3.” left out
Compound,number of MIR cells ([1]; lymph node),number of MIR cells ([1]; spleen),pulmonary myeloid infiltration and lung consolidation [2],growth and survival of cells (MTT viability) (KG-1 AML cells),number of Mac1+Gr1+ MySC (MDSC) ([1]; lymph node),number of Mac1+Gr1+ MySC (MDSC) ([1]; spleen),number of Treg cells ([3]; lymph node),number of Treg cells ([3]; spleen)
"CC(C)CCC[C@@H](C)[C@H]1CC[C@H]2[C@@H]3CC[C@H]4C[C@H](N)CC[C@]4(C)[C@H]3CC[C@]12C [NSC23922, (3R,5S,8R,9S,10S,13R,14S,17R)-10,13-dimethyl-17-[(2R)-6-methylheptan-2-yl]-2,3,4,5,6,7,8,9,11,12,14,15,16,17-tetradecahydro-1H-cyclopenta[a]phenanthren-3-amine]",increased significantly,increased significantly,absence of the pulmonary myeloid infiltration and lung consolidation,decreases the growth and survival,,,,
"OC(c1cc(-c2ccccc2)nc2c1ccc1ccccc12)C1CCCCN1 (centres unmarked) [NSC13480, (2-phenylbenzo[h]quinolin-4-yl)-piperidin-2-ylmethanol]",,,,,increased significantly,increased significantly,increased significantly,increased significantly
